Data published in paper PMC4141209 (FEBS Open Bio, 2014).
Like-named read-outs stand apart in the source and are kept apart here.

How the values were obtained:
TlLhpI [1] = assay: NADH oxidation at […] nm; format: biochemical, Thermococcus litoralis; conditions: NADH 0.15 mM, NH4Cl 700 mM, Tris-HCl pH 8.0, 50 °C
TlLhpI [2] = conditions: NADH 0.15 mM, NH4Cl 700 mM, Tris-HCl pH 8.0, 50 °C
TlLhpI [3] = assay: NAD+ reduction at […] nm; format: biochemical, Thermococcus litoralis
TlLhpI [4] = conditions: NAD+ 1.5 mM, Bis-tris propane pH 10.5, 50 °C
TlLhpI [5] = assay: NADH oxidation at […] nm; format: biochemical, Thermococcus litoralis; conditions: NADH 0.15 mM, potassium phosphate pH 6.0, 50 °C
TlLhpI [6] = conditions: NADH 0.15 mM, potassium phosphate pH 6.0, 50 °C
[7] = NAD+ 1.5 mM, Bis-tris propane pH 10.5, 50 °C
[8] = NAD+-dependent oxidation, 50 °C

SMILES	Km (TlLhpI [1])	Km (TlLhpI [3]; [7])	also measured
CC(C)CC(=O)C(=O)O [4-Methyl-2-oxovalerate]	2.52 ± 0.45 mM		
CCCC(=O)C(=O)O [2-Oxovalerate]	0.969 ± 0.093 mM		Km (TlLhpI [2]): 1.82 ± 0.14 mM
CC[C@H](N)C(=O)O [L-2-Aminobutyrate]		6 ± 0.29 mM	
CC(C)C[C@H](N)C(=O)O [L-Leucine]		1.32 ± 0.1 mM	
CCC[C@H](N)C(=O)O [L-2-Aminovalerate]		0.306 ± 0.009 mM	Km (TlLhpI [4]): 2.13 ± 0.3 mM
CN[C@@H](C)C(=O)O [N-Methyl-L-alanine]			Km (TlLhpI [3]; [8]): 0.406 ± 0.044 mM
O=C(O)C1=NCCC1 [Pyr2C, Δ^1-pyrroline-2-carboxylate]			Km (TlLhpI [5]): 944 ± 90 µM; Km (TlLhpI [6]): 2.77 ± 0.44 mM
O=C(O)CC(=O)C(=O)O [Oxalacetate]	8.86 ± 0.91 mM		
O=C(O)[C@@H]1CCCCN1 [L-Pipecolate]			Km (TlLhpI [3]; [8]): 0.608 ± 0.115 mM

Continued, in another order:

Km (TlLhpI [1])	Km (TlLhpI [3]; [7])	SMILES	also measured
	18.2 ± 5 mM	C[C@H](N)C(=O)O [L-Alanine]	Km (TlLhpI [4]): 36.9 ± 0.9 mM
9.37 ± 0.23 mM		CC(=O)C(=O)O [Pyruvate]	Km (TlLhpI [2]): 62 ± 12.2 mM
	1.12 ± 0.12 mM	O=C(O)[C@@H]1CCCN1 [L-Proline]	Km (TlLhpI [4]): 0.444 ± 0.008 mM
0.701 ± 0.02 mM		CCC(=O)C(=O)O [2-Oxobutyrate]	
